Measurements published in patent US12077503B2, “Substituted cyclic amides and their use as herbicides” (FMC CORPORATION, priority 2015, dated 2024).

What was measured:
Type in all cases: in vivo
[1] = system: velvetleaf (Abutilon theophrasti); assay: Test G Pre-Emergence Protocol; settings: Abutilon theophrasti, pre-emergence, 312 h, evaluated after 13 days; for pest or weed control at 15.625 g/ha: 15.625 g ai/ha; for pest or weed control at 15.625 g/ha / pest or weed control at 250 g/ha: read-out: Velvetleaf damage rating (100=total damage to plant; 0=no damage to plant); for pest or weed control at 62.5 g/ha: 62.5 g ai/ha, 100=total damage to plant, 0=no damage to plant, read-out: Velvetleaf damage rating; for pest or weed control at 250 g/ha: 250 g ai/ha
Outline: (§1)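 Test compound in 0.5% Tween 20 acetone/water (50:50) was applied at three rates (15.625, 62.5, 250 g/ha) to soil sown one day earlier. After 13 days plants were scored for injury, where 0 means unaffected and 100 means completely damaged.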

[2] = system: barnyardgrass (Echinochloa crus-galli); assay: Test G Pre-Emergence Protocol; settings: Echinochloa crus-galli, pre-emergence, 312 h, evaluated after 13 days; for pest or weed control at 15.625 g/ha: 15.625 g ai/ha; for pest or weed control at 15.625 g/ha / pest or weed control at 250 g/ha: read-out: Barnyardgrass damage rating (100=total damage to plant; 0=no damage to plant); for pest or weed control at 62.5 g/ha: 62.5 g ai/ha, 100=total damage to plant, 0=no damage to plant, read-out: Barnyardgrass damage rating; for pest or weed control at 250 g/ha: 250 g ai/ha
Outline: as §1

[3] = system: giant foxtail (Setaria faberi); assay: Test G Pre-Emergence Protocol; settings: Setaria faberi, pre-emergence, 312 h, evaluated after 13 days; for pest or weed control at 15.625 g/ha: 15.625 g ai/ha; for pest or weed control at 15.625 g/ha / pest or weed control at 250 g/ha: read-out: Foxtail, Giant damage rating (100=total damage to plant; 0=no damage to plant); for pest or weed control at 62.5 g/ha: 62.5 g ai/ha, 100=total damage to plant, 0=no damage to plant, read-out: Foxtail, Giant damage rating; for pest or weed control at 250 g/ha: 250 g ai/ha
Outline: as §1

[4] = system: redroot pigweed (Amaranthus retroflexus); assay: Test G Pre-Emergence Protocol; settings: Amaranthus retroflexus, pre-emergence, 312 h, evaluated after 13 days; for pest or weed control at 15.625 g/ha: 15.625 g ai/ha; for pest or weed control at 15.625 g/ha / pest or weed control at 250 g/ha: read-out: Pigweed, Redroot damage rating (100=total damage to plant; 0=no damage to plant); for pest or weed control at 62.5 g/ha: 62.5 g ai/ha, 100=total damage to plant, 0=no damage to plant, read-out: Pigweed, Redroot damage rating; for pest or weed control at 250 g/ha: 250 g ai/ha
Outline: as §1

[5] = system: ivy-leaved morning glory (Ipomoea hederacea); assay: Test G Pre-Emergence Protocol; settings: Ipomoea, pre-emergence, 312 h, evaluated after 13 days; for pest or weed control at 15.625 g/ha: 15.625 g ai/ha; for pest or weed control at 15.625 g/ha / pest or weed control at 250 g/ha: read-out: Morningglory, Ivy-leaved damage rating (100=total damage to plant; 0=no damage to plant); for pest or weed control at 62.5 g/ha: 62.5 g ai/ha, 100=total damage to plant, 0=no damage to plant, read-out: Morningglory, Ivy-leaved damage rating; for pest or weed control at 250 g/ha: 250 g ai/ha
Outline: as §1

corn (Zea mays) [6] = assay: Test G Pre-Emergence Protocol; settings: Zea mays, pre-emergence, 312 h, evaluated after 13 days; for plant injury at 15.625 g/ha: 15.625 g ai/ha; for plant injury at 15.625 g/ha / plant injury at 250 g/ha: read-out: Corn damage rating (100=total damage to plant; 0=no damage to plant); for plant injury at 62.5 g/ha: 62.5 g ai/ha, 100=total damage to plant, 0=no damage to plant, read-out: Corn damage rating; for plant injury at 250 g/ha: 250 g ai/ha
Outline: as §1

[7] = system: velvetleaf (Abutilon theophrasti); assay: Test G Post-Emergence Protocol; settings: Abutilon theophrasti, post-emergence, 312 h, read-out: Velvetleaf damage rating; for pest or weed control at 15.625 g/ha: 15.625 g ai/ha, evaluated after 13 days (100=total damage to plant; 0=no damage to plant); for pest or weed control at 62.5 g/ha: 62.5 g ai/ha; for pest or weed control at 62.5 g/ha / pest or weed control at 250 g/ha: evaluated after 13 days, 100=total damage to plant, 0=no damage to plant; for pest or weed control at 250 g/ha: 250 g ai/ha
Outline: (§2)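 Values are percent visual injury at 13 days after treatment (0 none, 100 total). Treatment was a post-emergence spray at 15.625, 62.5 or 250 g/ha on 8-day-old pot plants kept at 24/16 °C.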

[8] = system: barnyardgrass (Echinochloa crus-galli); assay: Test G Post-Emergence Protocol; settings: Echinochloa crus-galli, post-emergence, 312 h, read-out: Barnyardgrass damage rating; for pest or weed control at 15.625 g/ha: 15.625 g ai/ha, evaluated after 13 days (100=total damage to plant; 0=no damage to plant); for pest or weed control at 62.5 g/ha: 62.5 g ai/ha; for pest or weed control at 62.5 g/ha / pest or weed control at 250 g/ha: evaluated after 13 days, 100=total damage to plant, 0=no damage to plant; for pest or weed control at 250 g/ha: 250 g ai/ha
Outline: as §2

[9] = system: giant foxtail (Setaria faberi); assay: Test G Post-Emergence Protocol; settings: Setaria faberi, post-emergence, 312 h, read-out: Foxtail, Giant damage rating; for pest or weed control at 15.625 g/ha: 15.625 g ai/ha, evaluated after 13 days (100=total damage to plant; 0=no damage to plant); for pest or weed control at 62.5 g/ha: 62.5 g ai/ha; for pest or weed control at 62.5 g/ha / pest or weed control at 250 g/ha: evaluated after 13 days, 100=total damage to plant, 0=no damage to plant; for pest or weed control at 250 g/ha: 250 g ai/ha
Outline: as §2

[10] = system: redroot pigweed (Amaranthus retroflexus); assay: Test G Post-Emergence Protocol; settings: Amaranthus retroflexus, post-emergence, 312 h, read-out: Pigweed, Redroot damage rating; for pest or weed control at 15.625 g/ha: 15.625 g ai/ha, evaluated after 13 days (100=total damage to plant; 0=no damage to plant); for pest or weed control at 62.5 g/ha: 62.5 g ai/ha; for pest or weed control at 62.5 g/ha / pest or weed control at 250 g/ha: evaluated after 13 days, 100=total damage to plant, 0=no damage to plant; for pest or weed control at 250 g/ha: 250 g ai/ha
Outline: as §2

[11] = system: ivy-leaved morning glory (Ipomoea hederacea); assay: Test G Post-Emergence Protocol; settings: Ipomoea, post-emergence, 312 h, read-out: Morningglory, Ivy-leaved damage rating; for pest or weed control at 15.625 g/ha: 15.625 g ai/ha, evaluated after 13 days (100=total damage to plant; 0=no damage to plant); for pest or weed control at 62.5 g/ha: 62.5 g ai/ha; for pest or weed control at 62.5 g/ha / pest or weed control at 250 g/ha: evaluated after 13 days, 100=total damage to plant, 0=no damage to plant; for pest or weed control at 250 g/ha: 250 g ai/ha
Outline: as §2

corn (Zea mays) [12] = assay: Test G Post-Emergence Protocol; settings: Zea mays, post-emergence, 312 h, read-out: Corn damage rating; for plant injury at 15.625 g/ha: 15.625 g ai/ha, evaluated after 13 days (100=total damage to plant; 0=no damage to plant); for plant injury at 62.5 g/ha: 62.5 g ai/ha; for plant injury at 62.5 g/ha / plant injury at 250 g/ha: evaluated after 13 days, 100=total damage to plant, 0=no damage to plant; for plant injury at 250 g/ha: 250 g ai/ha
Outline: as §2

| SMILES | pest or weed control at 15.625 g/ha [1] | pest or weed control at 62.5 g/ha [1] | pest or weed control at 250 g/ha [1] | pest or weed control at 15.625 g/ha [2] | pest or weed control at 62.5 g/ha [2] | pest or weed control at 250 g/ha [2] | pest or weed control at 15.625 g/ha [3] | pest or weed control at 62.5 g/ha [3] | pest or weed control at 250 g/ha [3] | pest or weed control at 15.625 g/ha [4] | pest or weed control at 62.5 g/ha [4] | pest or weed control at 250 g/ha [4] | pest or weed control at 15.625 g/ha [5] | pest or weed control at 62.5 g/ha [5] | pest or weed control at 250 g/ha [5] | plant injury at 15.625 g/ha (corn (Zea mays) [6]) | plant injury at 62.5 g/ha (corn (Zea mays) [6]) | plant injury at 250 g/ha (corn (Zea mays) [6]) | pest or weed control at 15.625 g/ha [7] | pest or weed control at 62.5 g/ha [7] | further results |
| --- | --- | --- | --- | --- | --- | --- | --- | --- | --- | --- | --- | --- | --- | --- | --- | --- | --- | --- | --- | --- | --- |
| CN1C[C@H](c2cccc(C(F)F)c2)[C@@H](C(=O)Nc2cnccc2C(F)(F)F)C1=O (racemic) [Compound 1742] | 0% | 0% | 30% | 0% | 0% | 80% | 50% | 80% | 90% | 0% | 10% | 20% | 0% | 0% | 10% | 0% | 0% | 30% | 0% | 10% | pest or weed control at 250 g/ha [7]: 20%; pest or weed control at 15.625 g/ha [8]: 0%; pest or weed control at 62.5 g/ha [8]: 70%; pest or weed control at 250 g/ha [8]: 80%; pest or weed control at 15.625 g/ha [9]: 70%; pest or weed control at 62.5 g/ha [9]: 80%; pest or weed control at 250 g/ha [9]: 80%; pest or weed control at 15.625 g/ha [10]: 0%; pest or weed control at 62.5 g/ha [10]: 20%; pest or weed control at 250 g/ha [10]: 30%; pest or weed control at 15.625 g/ha [11]: 0%; pest or weed control at 62.5 g/ha [11]: 0%; pest or weed control at 250 g/ha [11]: 40%; plant injury at 15.625 g/ha (corn (Zea mays) [12]): 0%; plant injury at 62.5 g/ha (corn (Zea mays) [12]): 0%; plant injury at 250 g/ha (corn (Zea mays) [12]): 70% |
| CN1CC(c2cc(F)cc(OCC(F)(F)F)c2)C(C(=O)Nc2cccc(F)c2F)C1=O (stereo not drawn) [Compound 1698] | 0% | 10% | 20% | 60% | 70% | 80% | 70% | 70% | 90% | 0% | 10% | 40% | 10% | 0% | 20% | 0% | 30% | 70% | 0% | 10% | pest or weed control at 250 g/ha [7]: 50%; pest or weed control at 15.625 g/ha [8]: 60%; pest or weed control at 62.5 g/ha [8]: 80%; pest or weed control at 250 g/ha [8]: 80%; pest or weed control at 15.625 g/ha [9]: 80%; pest or weed control at 62.5 g/ha [9]: 80%; pest or weed control at 250 g/ha [9]: 80%; pest or weed control at 15.625 g/ha [10]: 20%; pest or weed control at 62.5 g/ha [10]: 30%; pest or weed control at 250 g/ha [10]: 60%; pest or weed control at 15.625 g/ha [11]: 10%; pest or weed control at 62.5 g/ha [11]: 70%; pest or weed control at 250 g/ha [11]: 70%; plant injury at 15.625 g/ha (corn (Zea mays) [12]): 20%; plant injury at 62.5 g/ha (corn (Zea mays) [12]): 70%; plant injury at 250 g/ha (corn (Zea mays) [12]): 70% |
